25 compounds from patent US9718828B2 (MERCK SHARP & DOHME CORP., priority 2011, dated 2017) can be followed below.

Counter-ions that a name gives are not always drawn. A value given as a limit tells only on which side of the number the result lay.

The target of the assay is hBTK (full-length BTK, 6HIS-tag cleaved) (Homo sapiens (Human), UniProt Q06187). Kind of assay: BTK enzymatic activity, LANCE TR-FRET assay (Assay Method C). Format: biochemical. Conditions: LANCE TR-FRET, 50 pM hBTK, 25 μM ATP; class 100-1000 is given as ≧100 nM-<1 μM; read-out: IC50 Btk activity values - Assay Method C. For orientation: In TR-FRET formats the signal depends on donor and acceptor labels being close together.
hBTK (full-length BTK, 6HIS-tag cleaved), sequence (Q06187 whole entry): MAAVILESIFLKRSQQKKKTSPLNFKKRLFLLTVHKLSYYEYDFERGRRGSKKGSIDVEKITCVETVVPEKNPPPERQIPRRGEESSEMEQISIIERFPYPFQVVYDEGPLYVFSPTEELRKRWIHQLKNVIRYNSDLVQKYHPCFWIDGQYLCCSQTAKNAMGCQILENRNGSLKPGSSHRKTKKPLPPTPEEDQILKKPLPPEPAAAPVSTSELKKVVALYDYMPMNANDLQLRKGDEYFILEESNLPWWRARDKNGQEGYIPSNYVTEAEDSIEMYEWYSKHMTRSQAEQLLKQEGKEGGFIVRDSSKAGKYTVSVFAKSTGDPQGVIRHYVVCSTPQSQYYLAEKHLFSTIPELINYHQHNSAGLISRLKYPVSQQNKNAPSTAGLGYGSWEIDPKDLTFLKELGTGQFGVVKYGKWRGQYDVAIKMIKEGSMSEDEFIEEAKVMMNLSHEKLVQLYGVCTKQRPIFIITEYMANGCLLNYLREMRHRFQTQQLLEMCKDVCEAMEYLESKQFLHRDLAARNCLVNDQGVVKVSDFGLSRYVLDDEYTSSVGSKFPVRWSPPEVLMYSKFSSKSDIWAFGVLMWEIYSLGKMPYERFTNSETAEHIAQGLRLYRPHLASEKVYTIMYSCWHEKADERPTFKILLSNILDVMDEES
For orientation: IC50 means the point on the concentration scale where inhibition reaches its midpoint. Regarding `C[C@H]1CC[C@@H](c2nc(-c3ccc(C(=O)Nc4cc(C(F)F)ccn4)cc3F)c3c(N)nccn23)CN1C(=O)C1(C)COC1` [Example 434, 4-(8-amino-3-{(3R,6S)-6-methyl-1-[(3-methyloxetan-3-yl)carbonyl]piperidin-3-yl}imidazo[1,5-a]pyrazin-1-yl)-N-[4-(difluoromethyl)pyridin-2-yl]-3-fluorobenzamide], the IC50 is less than 10 nM. Regarding `C[C@H]1CO[C@@H](c2nc(-c3ccc(C(=O)Nc4cc(C(F)(F)F)ccn4)cc3)c3c(N)nccn23)CN1C(=O)C1(C)COC1` [Example 515, 4-(8-amino-3-{(2R,5S)-5-methyl-4-[(3-methyloxetan-3-yl)carbonyl]morpholin-2-yl}imidazo[1,5-a]pyrazin-1-yl)-N-[4-(trifluoromethyl)pyridin-2-yl]benzamide, TFA salt], the IC50 is less than 10 nM. The value for `C[C@H]1CC[C@@H](c2nc(-c3ccc(C(=O)Nc4cc(OC5CC5)ccn4)cc3)c3c(N)nccn23)CN1C(=O)C1(C)COC1` [Example 409, 4-(8-amino-3-{(3R,6S)-6-methyl-1-[(3-methyloxetan-3-yl)carbonyl]piperidin-3-yl}imidazo[1,5-a]pyrazin-1-yl)-N-[4-(cyclopropyloxy)pyridin-2-yl]benzamide] was less than 10 nM; that for `Nc1ncnc2c1c(-c1ccc(C(=O)Nc3cc(C(F)(F)F)ccn3)cc1)nn2[C@H]1CCCc2[nH]ncc21` [Example 555, 4-{4-amino-1-[(4S)-4,5,6,7-tetrahydro-1H-indazol-4-yl]-1H-pyrazolo[3,4-d]pyrimidin-3-yl}-N-[4-(trifluoromethyl)pyridin-2-yl]benzamide, TFA salt] was less than 10 nM; that for `CC(C)COc1ccnc(NC(=O)c2ccc(-c3nc([C@@H]4CC[C@H](C)N(C(=O)C5(C)COC5)C4)n4ccnc(N)c34)cc2)c1` [Example 417, 4-(8-amino-3-{(3R,6S)-6-methyl-1-[(3-methyloxetan-3-yl)carbonyl]piperidin-3-yl}imidazo[1,5-a]pyrazin-1-yl)-N-[4-(2-methylpropoxy)pyridin-2-yl]benzamide] was less than 10 nM. Regarding `Cc1cnc(N)c2c(-c3ccc(C(=O)Nc4cc(C(F)(F)F)ccn4)cc3)nc([C@H]3CN(C(=O)[C@H](C)O)CCO3)n12` [Example 543, 4-(8-amino-3-{(2R)-4-[(2S)-2-hydroxypropanoyl]morpholin-2-yl}-5-methylimidazo[1,5-a]pyrazin-1-yl)-N-[4-(trifluoromethyl)pyridin-2-yl]benzamide, TFA salt], the IC50 was less than 10 nM. With `COCC(=O)N1CCC[C@@H](c2nc(-c3ccc(C(=O)Nc4cc(C(F)(F)F)ccn4)cc3)c3c(N)nccn23)C1` [Example 340, 4-{8-amino-3-[(3R)-1-(methoxyacetyl)piperidin-3-yl]imidazo[1,5-a]pyrazin-1-yl}-N-[4-(trifluoromethyl)pyridin-2-yl]benzamide], the IC50 is less than 10 nM.

In the case of `Nc1nccn2c([C@H]3CN[C@@H](CO)CO3)nc(-c3ccc(C(=O)Nc4cc(C(F)(F)F)ccn4)cc3)c12` [Example 546, 4-{8-amino-3-[(2R,5S)-5-(hydroxymethyl)morpholin-2-yl]imidazo[1,5-a]pyrazin-1-yl}-N-[4-(trifluoromethyl)pyridin-2-yl]benzamide], the IC50 is less than 10 nM.

For the compound `Cc1ccc(NC(=O)c2ccc(-c3nc([C@@H]4CCCN(C(=O)C5(C)COC5)C4)n4ccnc(N)c34)cc2)nc1` [Example 356, 4-(8-amino-3-{(3R)-1-[(3-methyloxetan-3-yl)carbonyl]piperidin-3-yl}imidazo[1,5-a]pyrazin-1-yl)-N-(5-methylpyridin-2-yl)benzamide], the IC50 was less than 10 nM.

With `CC1(C(=O)N2CCC[C@@H](c3nc(-c4ccc(C(=O)Nc5cc(C(F)(F)F)ccn5)cc4)c4c(N)ncc(C(F)(F)F)n34)C2)COC1` [Example 470, 4-[8-amino-3-{(3R)-1-[(3-methyloxetan-3-yl)carbonyl]piperidin-3-yl}-5-(trifluoromethyl)imidazo[1,5-a]pyrazin-1-yl]-N-[4-(trifluoromethyl)pyridin-2-yl]benzamide], the IC50 is less than 10 nM. Consider `CC1(CN2CCO[C@@H](c3nc(-c4ccc(C(=O)Nc5cc(C(F)(F)F)ccn5)cc4)c4c(N)nccn34)C2)COC1` [Example 507, 4-(8-amino-3-{(2R)-4-[(3-methyloxetan-3-yl)methyl]morpholin-2-yl}imidazo[1,5-a]pyrazin-1-yl)-N-[4-(trifluoromethyl)pyridin-2-yl]benzamide], for which the IC50 is less than 10 nM.

As to `CCn1ncc2c1CCC[C@H]2n1nc(-c2ccc(C(=O)Nc3cc(C(F)(F)F)ccn3)cc2)c2c(N)ncnc21` [Example 559, 4-{4-amino-1-[(4R)-1-ethyl-4,5,6,7-tetrahydro-1H-indazol-4-yl]-1H-pyrazolo[3,4-d]pyrimidin-3-yl}-N-[4-(trifluoromethyl)pyridin-2-yl]benzamide, TFA salt], the IC50 was less than 10 nM. As to `CS(=O)(=O)CC(=O)N1CCO[C@@H](c2nc(-c3ccc(C(=O)Nc4cc(C(F)(F)F)ccn4)cc3)c3c(N)nccn23)C1` [Example 545, 4-(8-amino-3-{(2R)-4-[(methylsulfonyl)acetyl]morpholin-2-yl}imidazo[1,5-a]pyrazin-1-yl)-N-[4-(trifluoromethyl)pyridin-2-yl]benzamide], the IC50 is less than 10 nM. With `CCOCCC(=O)N1CCO[C@@H](c2nc(-c3ccc(C(=O)Nc4cc(C(F)(F)F)ccn4)cc3)c3c(N)nccn23)C1` [Example 503, 4-{8-amino-3-[(2R)-4-(3-ethoxypropanoyl)morpholin-2-yl]imidazo[1,5-a]pyrazin-1-yl}-N-[4-(trifluoromethyl)pyridin-2-yl]benzamide], the IC50 is less than 10 nM. For the compound `CC1(C(=O)N2CCC[C@@H](c3nc(-c4ccc(C(=O)Nc5cc(OC(F)F)ccn5)cc4F)c4c(N)nccn34)C2)COC1` [Example 478, 4-(8-amino-3-{(3R)-1-[(3-methyloxetan-3-yl)carbonyl]piperidin-3-yl}imidazo[1,5-a]pyrazin-1-yl)-N-[4-(difluoromethoxy)pyridin-2-yl]-3-fluorobenzamide], the IC50 is less than 10 nM.

With `COc1ccnc(NC(=O)c2ccc(-c3nc([C@@H]4CCCN(C(=O)C5(C)COC5)C4)n4c(C)cnc(N)c34)cc2)c1` [Example 459, 4-(8-amino-5-methyl-3-{(3R)-1-[(3-methyloxetan-3-yl)carbonyl]piperidin-3-yl}imidazo[1,5-a]pyrazin-1-yl)-N-(4-methoxypyridin-2-yl)benzamide], the IC50 was less than 10 nM. As for `Nc1ncnc2c1c(-c1ccc(C(=O)Nc3cc(C(F)(F)F)ccn3)cc1)nn2[C@@H]1CCCc2[nH]ncc21` [Example 554, 4-{4-amino-1-[(4R)-4,5,6,7-tetrahydro-1H-indazol-4-yl]-1H-pyrazolo[3,4-d]pyrimidin-3-yl}-N-[4-(trifluoromethyl)pyridin-2-yl]benzamide, TFA salt], the figure is 10 to 100 nM. As for `CO[C@H](C)c1cnc(N)c2c(-c3ccc(C(=O)Nc4cc(C(F)(F)F)ccn4)cc3)nc([C@@H]3CCCN(C(=O)C4(C)COC4)C3)n12` [Example 467, 4-(8-amino-5-[(1R)-1-methoxyethyl]-3-{(3R)-1-[(3-methyloxetan-3-yl)carbonyl]piperidin-3-yl}imidazo[1,5-a]pyrazin-1-yl)-N-[4-(trifluoromethyl)pyridin-2-yl]benzamide], the figure is less than 10 nM; as for `CC1(C(=O)N2CCC[C@@H](c3nc(-c4ccc(C(=O)Nc5cscn5)cc4)c4c(N)nccn34)C2)COC1` [Example 350, 4-(8-amino-3-{(3R)-1-[(3-methyloxetan-3-yl)carbonyl]piperidin-3-yl}imidazo[1,5-a]pyrazin-1-yl)-N-1,3-thiazol-4-ylbenzamide], 10 to 100 nM. Regarding `CC1(C(=O)N2CCC[C@@H](c3nc(-c4ccc(C(=O)Nc5cc(C(C)(F)F)ccn5)cc4F)c4c(N)nccn34)C2)COC1` [Example 484, 4-(8-amino-3-{(3R)-1-[(3-methyloxetan-3-yl)carbonyl]piperidin-3-yl}imidazo[1,5-a]pyrazin-1-yl)-N-[4-(1,1-difluoroethyl)pyridin-2-yl]-3-fluorobenzamide], the IC50 is less than 10 nM. Consider `Nc1nccn2c([C@H]3CC[C@@H](CO)N(C(=O)C4CC4)C3)nc(-c3ccc(C(=O)Nc4cc(C(F)(F)F)ccn4)cc3)c12` [Example 419, 4-{8-amino-3-[(3S,6S)-1-(cyclopropylcarbonyl)-6-(hydroxymethyl)piperidin-3-yl]imidazo[1,5-a]pyrazin-1-yl}-N-[4-(trifluoromethyl)pyridin-2-yl]benzamide], for which the IC50 is less than 10 nM. Turning to `COCCN1CCO[C@@H](c2nc(-c3ccc(C(=O)Nc4cc(C(F)(F)F)ccn4)cc3)c3c(N)ncc(Cl)n23)C1` [Example 542, 4-{8-amino-5-chloro-3-[(2R)-4-(2-methoxyethyl)morpholin-2-yl]imidazo[1,5-a]pyrazin-1-yl}-N-[4-(trifluoromethyl)pyridin-2-yl]benzamide, TFA salt], the IC50 was less than 10 nM. `CC1(C(=O)N2CCC[C@@H](n3nc(-c4ccc(C(=O)Nc5cc(C(F)(F)F)ccn5)cc4)c4c(N)nccc43)C2)COC1` [Example 381, 4-(4-amino-1-{(3R)-1-[(3-methyloxetan-3-yl)carbonyl]piperidin-3-yl}-1H-pyrazolo[4,3-c]pyridin-3-yl)-N-[4-(trifluoromethyl)pyridin-2-yl]benzamide]: the 50% inhibitory concentration (IC50) was less than 10 nM. The value for `Cc1cnc(N)c2c(-c3ccc(C(=O)Nc4cc(C(F)(F)F)ccn4)cc3)nc([C@H]3CN(CCO)CCO3)n12` [Example 540, 4-{8-amino-3-[(2R)-4-(2-hydroxyethyl)morpholin-2-yl]-5-methylimidazo[1,5-a]pyrazin-1-yl}-N-[4-(trifluoromethyl)pyridin-2-yl]benzamide, TFA salt] was less than 10 nM; that for `Nc1ncnc2c1c(-c1ccc(C(=O)Nc3cc(C(F)(F)F)ccn3)cc1)nn2[C@@H]1CCCc2c1cnn2CCO` [Example 561, 4-{4-amino-1-[(4R)-1-(2-hydroxyethyl)-4,5,6,7-tetrahydro-1H-indazol-4-yl]-1H-pyrazolo[3,4-d]pyrimidin-3-yl}-N-[4-(trifluoromethyl)pyridin-2-yl]benzamide, TFA salt] was less than 10 nM.
